Calls of active or inactive are those of the source.
Key:
[1] = molecular target: Luciferin 4-monooxygenase (Photinus pyralis, UniProt P08659); experiment: firefly luciferase enzyme inhibitors, dose response, biochemical, luminescence (AID 1891)
[2] = Luminescence Cell-Based Dose Confirmation HTS to Identify Inhibitors of Platelet Dense Granule Release. [Related pubchem assays: 1663 (Primary HTS), 1678 (Summary of Project)]; assay type: functional
[3] = molecular target: Heat shock protein HSP 90-alpha (Homo sapiens, UniProt P07900); assay type: functional, organism-based
[4] = molecular target: T1, Calpain-2 catalytic subunit (Sus scrofa, UniProt P43367); experiment: pig calpain II inhibitor potency, dose response, biochemical, fluorogenic peptide substrate (AID 1420); assay type: functional
T1 sequence (P43367 whole entry): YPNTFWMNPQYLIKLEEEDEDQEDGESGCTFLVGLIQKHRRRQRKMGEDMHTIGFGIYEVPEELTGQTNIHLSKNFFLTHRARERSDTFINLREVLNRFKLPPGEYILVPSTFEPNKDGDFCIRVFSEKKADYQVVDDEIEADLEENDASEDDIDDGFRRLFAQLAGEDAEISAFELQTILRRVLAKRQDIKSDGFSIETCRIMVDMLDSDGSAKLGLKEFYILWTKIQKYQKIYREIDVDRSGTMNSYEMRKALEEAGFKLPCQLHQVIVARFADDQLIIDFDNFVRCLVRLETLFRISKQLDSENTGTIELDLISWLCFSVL

[5] = molecular target: T2, High affinity choline transporter 1 (Homo sapiens, UniProt Q9GZV3); experiment: CHT inhibitors, dose response, cell-based, 5-point CRC, membrane potential dye (AID 504840); assay type: functional
T2 sequence (Q9GZV3 whole entry): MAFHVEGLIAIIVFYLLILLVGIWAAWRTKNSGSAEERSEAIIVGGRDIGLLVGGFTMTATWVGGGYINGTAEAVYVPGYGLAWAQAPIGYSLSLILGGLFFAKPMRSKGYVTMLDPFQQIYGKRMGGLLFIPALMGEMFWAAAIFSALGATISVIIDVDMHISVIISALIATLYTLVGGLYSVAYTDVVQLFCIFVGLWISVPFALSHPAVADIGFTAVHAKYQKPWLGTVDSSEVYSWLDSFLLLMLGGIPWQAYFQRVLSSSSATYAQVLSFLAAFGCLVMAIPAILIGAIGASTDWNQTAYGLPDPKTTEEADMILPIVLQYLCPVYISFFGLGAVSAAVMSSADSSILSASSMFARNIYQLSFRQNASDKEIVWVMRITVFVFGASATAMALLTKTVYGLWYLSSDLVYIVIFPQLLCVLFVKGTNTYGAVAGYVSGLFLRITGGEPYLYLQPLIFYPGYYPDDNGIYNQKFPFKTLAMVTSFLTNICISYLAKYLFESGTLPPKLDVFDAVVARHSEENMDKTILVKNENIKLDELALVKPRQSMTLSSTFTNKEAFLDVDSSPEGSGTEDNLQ

[6] = growth suppression of PTEN-null colon cells, dose response, cell-based, HCT116 PTEN knockout (AID 1047); assay type: functional;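 note: HCT116 colon tumor cells with PTEN knocked out; cells exposed to compound for 60 hours before readout; potency for loss of cell viability measured by luminescence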
[7] = growth suppression of beta-catenin-knockout colon cells, dose response, cell-based, HCT116, human colon tumor (AID 1045); assay type: functional;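 note: HCT116 colon tumor cells with beta catenin knocked out; cells exposed to compound for 60 hours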
[8] = molecular target: Glyceraldehyde-3-phosphate dehydrogenase (Homo sapiens, UniProt P04406)
Chain of Glyceraldehyde-3-phosphate dehydrogenase (P04406 whole entry): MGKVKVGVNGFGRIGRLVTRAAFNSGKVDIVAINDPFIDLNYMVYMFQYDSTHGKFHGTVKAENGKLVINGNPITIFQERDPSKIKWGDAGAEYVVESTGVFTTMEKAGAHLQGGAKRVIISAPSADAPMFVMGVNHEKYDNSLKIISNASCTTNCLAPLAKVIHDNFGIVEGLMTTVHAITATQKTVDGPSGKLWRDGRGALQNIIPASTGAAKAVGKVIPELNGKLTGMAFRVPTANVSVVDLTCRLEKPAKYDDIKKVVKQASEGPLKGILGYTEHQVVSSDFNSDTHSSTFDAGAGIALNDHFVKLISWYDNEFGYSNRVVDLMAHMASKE

Protein skinhead-1 = molecular target: T3, Protein skinhead-1 (Caenorhabditis elegans, UniProt P34707); assay type: functional
T3 sequence (P34707 whole entry): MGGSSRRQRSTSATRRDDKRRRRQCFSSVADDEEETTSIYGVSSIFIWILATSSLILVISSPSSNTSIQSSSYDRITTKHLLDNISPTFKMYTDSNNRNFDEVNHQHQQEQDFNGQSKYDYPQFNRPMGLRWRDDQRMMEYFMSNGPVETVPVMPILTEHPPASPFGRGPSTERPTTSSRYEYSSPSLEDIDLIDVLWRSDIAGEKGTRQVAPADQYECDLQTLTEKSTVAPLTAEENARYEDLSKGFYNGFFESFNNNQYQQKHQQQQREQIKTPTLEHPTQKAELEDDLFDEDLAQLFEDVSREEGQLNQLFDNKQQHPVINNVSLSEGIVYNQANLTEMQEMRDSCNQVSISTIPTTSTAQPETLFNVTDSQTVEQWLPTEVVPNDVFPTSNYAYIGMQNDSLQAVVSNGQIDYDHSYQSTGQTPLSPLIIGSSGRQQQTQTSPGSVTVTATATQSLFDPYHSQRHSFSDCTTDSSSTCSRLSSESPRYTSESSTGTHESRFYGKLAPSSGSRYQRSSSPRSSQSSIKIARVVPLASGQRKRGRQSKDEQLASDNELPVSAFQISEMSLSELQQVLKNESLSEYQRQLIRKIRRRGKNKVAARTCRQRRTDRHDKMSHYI

Cytochrome P450 3A4 = Cytochrome P450 3A4 (Homo sapiens, UniProt P08684);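 note: CYP3A4 tested as one member of a cytochrome P450 panel screen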
Chain of Cytochrome P450 3A4 (P08684 whole entry): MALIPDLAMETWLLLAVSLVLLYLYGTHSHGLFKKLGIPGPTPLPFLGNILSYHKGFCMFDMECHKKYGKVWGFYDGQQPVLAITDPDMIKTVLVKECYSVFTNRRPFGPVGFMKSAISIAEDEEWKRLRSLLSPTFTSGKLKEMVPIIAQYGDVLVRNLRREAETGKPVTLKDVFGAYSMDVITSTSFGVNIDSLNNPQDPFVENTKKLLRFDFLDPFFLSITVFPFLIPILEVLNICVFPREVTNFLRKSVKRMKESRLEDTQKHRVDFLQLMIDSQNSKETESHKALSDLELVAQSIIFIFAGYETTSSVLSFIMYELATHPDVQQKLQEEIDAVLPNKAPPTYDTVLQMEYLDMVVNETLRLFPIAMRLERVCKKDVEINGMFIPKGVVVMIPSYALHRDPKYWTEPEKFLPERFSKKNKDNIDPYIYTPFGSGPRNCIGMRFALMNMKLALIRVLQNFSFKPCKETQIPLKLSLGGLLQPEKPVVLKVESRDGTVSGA

Cytochrome P450 2C19 = Cytochrome P450 2C19 (Homo sapiens, UniProt P33261); experiment: Cytochrome panel assay with activity outcomes. Panel member name: p450-cyp2c19 Compounds with AC50 equal or less than 10 uM are considered active; assay type: functional
Chain of Cytochrome P450 2C19 (P33261 whole entry): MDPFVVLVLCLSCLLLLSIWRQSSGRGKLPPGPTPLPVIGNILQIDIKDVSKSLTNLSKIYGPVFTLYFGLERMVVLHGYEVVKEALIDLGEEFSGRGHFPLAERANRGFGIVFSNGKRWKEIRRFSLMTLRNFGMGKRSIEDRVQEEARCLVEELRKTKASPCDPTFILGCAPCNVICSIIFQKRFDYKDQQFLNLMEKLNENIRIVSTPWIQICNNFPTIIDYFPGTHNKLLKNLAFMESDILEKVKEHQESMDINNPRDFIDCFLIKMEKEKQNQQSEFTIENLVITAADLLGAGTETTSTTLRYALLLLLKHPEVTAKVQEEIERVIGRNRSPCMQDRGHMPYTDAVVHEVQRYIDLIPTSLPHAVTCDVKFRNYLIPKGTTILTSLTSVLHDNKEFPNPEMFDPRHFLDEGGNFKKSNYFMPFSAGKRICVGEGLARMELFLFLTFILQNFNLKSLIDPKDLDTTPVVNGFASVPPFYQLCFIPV

[9] = P. falciparum Dd2 growth inhibitors, dose response, SYBR Green, cherry-picked samples (AID 1159567); assay type: functional, cell-based

Chain of Luciferin 4-monooxygenase (P08659 whole entry): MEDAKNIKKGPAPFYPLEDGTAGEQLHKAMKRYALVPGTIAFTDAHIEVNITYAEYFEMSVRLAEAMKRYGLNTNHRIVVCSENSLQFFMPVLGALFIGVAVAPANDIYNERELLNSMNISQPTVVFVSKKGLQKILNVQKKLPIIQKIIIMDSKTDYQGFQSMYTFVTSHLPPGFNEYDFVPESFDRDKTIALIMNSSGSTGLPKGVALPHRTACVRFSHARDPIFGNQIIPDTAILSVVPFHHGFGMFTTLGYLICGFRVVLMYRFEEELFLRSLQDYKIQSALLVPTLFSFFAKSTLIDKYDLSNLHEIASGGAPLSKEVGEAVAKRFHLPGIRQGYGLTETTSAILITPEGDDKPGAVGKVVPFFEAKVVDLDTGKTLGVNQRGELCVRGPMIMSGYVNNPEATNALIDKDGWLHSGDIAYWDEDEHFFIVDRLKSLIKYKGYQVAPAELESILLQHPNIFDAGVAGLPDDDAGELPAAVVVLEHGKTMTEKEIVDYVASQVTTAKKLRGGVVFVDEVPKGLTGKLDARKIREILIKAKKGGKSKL

## CCn1ccc(C(=O)Nc2c(C)nn(Cc3c(F)c(F)c(F)c(F)c3F)c2C)n1
[1]
  EC50: > 112 µM (not active)
[2]
  EC50: > 112 µM (not active)

## O=C(c1ccc(-c2ccccc2)cc1)C1CCCN(C(=O)c2cncs2)C1 (stereo not drawn)
[3]
  AC50: 4.29 µM (active)

## CCC(=O)N1CCc2cc(S(=O)(=O)N3CCc4ccccc4C3)ccc21
[4]
  IC50: < 0.4 µM (not active)

## COc1ccc(-n2c(C)cc(C(=O)CSc3nnc(-c4ccoc4C)n3C)c2C)cc1
[5]
  IC50: 13.8 µM (active)

## COc1ccc2nc(Nc3nc4ccc(NC(C)=O)cc4s3)sc2c1
[6]
  EC50: 16.9 µM (active)
[7]
  EC50: 14 µM (active)

## O=C(O)C1Nc2ccccc2S(=O)(=O)N1 (stereo not drawn)
[8]
  IC50: > 100 µM (not active)

## COc1ccc(-n2cc(-c3ccccc3)c3c(N4CCN(CCO)CC4)ncnc32)cc1
[6]
  EC50: 32.8 µM (active)
[7]
  EC50: 30.3 µM (active)

## O=C(/C=C/Nc1ccc(Oc2ccccc2)cc1)c1ccco1
[1]
  EC50: 0.617 µM (active)
[2]
  EC50: 1.64 µM (active)
Protein skinhead-1
  IC50: > 100 µM (inactive)

## Cc1ccc(SCCN=C(S)Nc2cc(C)cc(C)c2)cc1
[4]
  IC50: 6.82 µM (not active)

## COc1ccc(N(C(=O)Cn2nnc(-c3ccccc3F)n2)C(C(=O)NCC2CCCO2)c2ccc(Cl)cc2)cc1 (stereo not drawn)
[4]
  IC50: > 50 µM (not active)

## CC(C)C[C@H](NC(=O)[C@@H]1O[C@H]1C(=O)O)C(=O)NCCCCN=C(N)N
[4]
  IC50: > 50 µM (not active)
Cytochrome P450 3A4
  AC50: 0.158 µM (inconclusive)
Cytochrome P450 2C19
  AC50: inconclusive

## O=C(Nc1cccc(-c2nnc(-c3ccco3)o2)c1)c1ccccc1
[4]
  IC50: 2.37 µM (not active)

## CCOc1cc2c(cc1C(C)(C)C)NC(=O)CS2
[1]
  EC50: > 112 µM (not active)
[2]
  EC50: > 112 µM (not active)

## Cc1noc(C)c1CSc1nnc2scc(-c3ccc(Cl)cc3)n12
[1]
  EC50: > 112 µM (not active)
[2]
  EC50: > 112 µM (not active)

## Fc1ccccc1Nc1nc2ccccc2o1
[1]
  EC50: 0.83 µM (active)
[2]
  EC50: 4.57 µM (active)

## COc1ccc2oc(/C=C/N(C)C)c(C(=O)c3ccc(Cl)cc3)c2c1
[3]
  AC50: 3.8 µM (active)

## CCOC(=O)C1CCN(Cc2c(O)oc3ccccc3c2=O)CC1
[5]
  IC50: 6.91 µM (active)

## CCCCn1c(SCn2nnc3ccccc3c2=O)nc2cc(S(N)(=O)=O)ccc21
[5]
  IC50: 15.8 µM (active)

## O=C(CN1CCCCC1)N1CCCc2c1c(=O)oc1ccc(OCc3ccccc3)cc21
[6]
  EC50: 39.9 µM (active)
[7]
  EC50: 48.4 µM (active)

## COc1cccc(/C=N/Nc2ccc(S(=O)(=O)O)cc2)c1O
[1]
  EC50: 3.91 µM (active)
[2]
  EC50: 3.13 µM (active)

## Cc1cc(C(=O)N/N=C/c2ccc(OCc3ccccc3)cc2)c(C)o1
[4]
  IC50: < 0.4 µM (not active)

## COc1ccc(CO/N=C/c2c(C)nc(O)nc2O)cc1
[1]
  EC50: > 112 µM (not active)
[2]
  EC50: 13.8 µM (active)

## CC(C)(C)[S@+]([O-])N1Cc2cc(C(=O)NCCN3CCCCC3)nc(-c3cccc(-c4ccc(C#N)cc4)c3)c2[C@@H]1CCO
[9]
  AC50: 9.22 µM (active)

## COc1ccccc1CNC(=O)C[C@H]1C[C@H]2c3cc(NC(=O)Cc4ccncc4)ccc3O[C@H]2[C@@H](CO)O1
[9]
  AC50: 4.52 µM (active)

## C[C@@H]1CN([C@H](C)CO)C(=O)c2c(c3ccccc3n2C)-c2ccccc2CO[C@@H]1CN(C)Cc1cccc(F)c1
[9]
  AC50: 3.45 µM (active)

— ChEMBL document CHEMBL1201862, “PubChem BioAssay data set” (2004)
